Holding throughout (assay type): in vivo
Data set [1] has as its system Soybean looper, Chrysodeixis includens. Briefly: Soybean looper bioassay by diet surface incorporation, mortality. As to conditions: for LC50: Chrysodeixis includens, 72 h, 3rd larval stage, diet surface incorporation, mortality 3 days after treatment (D + 3), read-out: LC50 (μg of a.i/ml of diet). The source says:
Soybean looper, Chrysodeixis includens—3rd larval stage
Bioassay by diet surface incorporation Mortality assessment 3 days after treatment a.i. refers to active ingredient
(§1) LC stands for “Lethal Concentration”. LC values refer to the concentration of a chemical required to kill a certain proportion of a population of pests. The concentration of the chemical that kills 50 percent of the pests during the observation period is the LC50 value and a concentration that kills 90 percent of a population is LC90, LD stands for “Lethal Dose”. LD50 is the amount of an ingested substance that kills 50 percent of a test sample and […] is the lethal dose that kills 90 percent of the test sample. […] In example 1, approximately 4 times less thiocyclam hydrochloride was ingested by the moths at LC50 compared to cartap and approximately 9 times less at LC90 compared to cartap. […] In example 7, all three insecticides performed similarly to eliminate the aphids on radish plants. […] The use of the thiocyclam hydrochloride composition embodiments is in no way restricted to these genera, but also extends in the same manner to other insects and other crops.

In data set [2] the test system is Aphids, Myzus persicae. Put plainly: Aphid larvae on radish, boom sprayer application (IRAC n°019 adapted), mortality. As to conditions: for LD50 (g a.iJha) / LD90 (g al./ha): mortality 3 days after application (D + 3); for LD50 (g al./ha) / LD90 (g alJha): mortality 4 days after application (D + 4).
From the text: Aphids, Myzus persicae—larvae
Study based on IRAC n°019 methods, application method adapted Plant: radish Application on petri dish with larvae with a boom sprayer apparatus Assessment of mortality 3 and 4 days after application a.i. refers to active ingredient
as §1

Data set [3] concerns White flies, Trialeurodes vaporarium. Briefly: White fly larvae on bean, boom sprayer application (IRAC n°015 adapted), mortality. As to conditions: for LD50 (g al/ha) / LD90 (g a.i/ha): mortality 9 days after application (D + 9); for LD50 (g a.i./ha) / LD90 (g a.i./ha): mortality 14 days after application (D + 14).
From the text: White flies, Trialeurodes vaporarium—larvae
Study based on IRAC n°015 methods, stage and application method adapted Plant: bean Application: On the petri dish with larvae with a boom sprayer apparatus Assessment of mortality at 7, 9 and 14 days after application a.i. refers to active ingredient
as §1

Data set [4] concerns Coding moth, Cydia pomonella.
From the text: Coding moth, Cydia pomonella—onate
larvae Bioassay by diet incorporation; Mortality assessment 2 days after treatment a.i. refers to active ingredient
as §1

The structures appear in SMILES notation.

Turning to `CN(C)C(CSC(N)=O)CSC(N)=O` [Cartap, reference compound], in data set [1], the LC50 stood at 53.1 µg/mL. In addition, in data set [2], the “LD50 (g a.iJha)” value is listed as <18.18 g a.iJha, the “LD90 (g al./ha)” value is reported as 36.70 g al./ha, the “LD50 (g al./ha)” value is reported as <18.18 g al./ha and the “LD90 (g alJha)” value is given as 16 g alJha. Moreover, in data set [3] (larvae, bean), the “LD50 (g al/ha)” value amounted to 15.6 g al/ha, the “LD90 (g a.i/ha)” value is given as 4,566.3 g a.i/ha, the “LD50 (g a.i./ha)” value was 10.4 g a.i./ha and the “LD90 (g a.i./ha)” value amounted to 910.4 g a.i./ha.
With `CN(C)C1CSSSC1.Cl` [Thiocyclam HCl, N,N-dimethyl-1,2,3-trithian-5-ylamine hydrochloride], the “times less ingested by the moths at LC50 compared to cartap” value in data set [4] (compared to cartap, LC50) was “approximately 4 times”. Moreover, the “times less at LC90 compared to cartap” value in data set [4] (compared to cartap, LC90) was “approximately 9 times”. Also, the “LC50 and LC90 compared to thiocyclam oxalate” value in data set [4] (compared to thiocyclam oxalate) is reported as “significantly lower concentrations”. Besides, in data set [1], the LC50 worked out at 8.99 µg/mL. Moreover, the “LC50 achieved with times less than cartap” value in data set [1] (compared to cartap, LC50) is “approximately 6 times”. Moreover, in data set [1] (compared to cartap, LC90), the “LC90 compared to the concentration of cartap” value is reported as “more than three times lower”. Also, the “LC50 achieved with times less than thiocyclam oxalate” value in data set [1] (compared to thiocyclam oxalate, LC50) was “approximately 20 times”. In data set [1] (compared to thiocyclam oxalate, LC90), the “LC90 compared to thiocyclam oxalate” value is reported as “orders of magnitude smaller”. In data set [2], the “LD50 (g a.iJha)” value turned out to be 12.04 g a.iJha, the “LD90 (g al./ha)” value is 30.51 g al./ha, the “LD50 (g al./ha)” value is listed as 7.66 g al./ha and the “LD90 (g alJha)” value worked out at 27.07 g alJha. In addition, the “LD90 compared to cartap” value in data set [3] (days 7 and 9) was “lower application concentration compared to cartap”. Also, in data set [3] (larvae, bean, mortality 7 days after application (D + 7)), the “LD90 (g ai./ha)” value is reported as 1,899 g ai./ha. For the same molecule, in data set [3] (larvae, bean), the “LD50 (g al/ha)” value was found to be 2.23 g al/ha, the “LD90 (g a.i/ha)” value is 4,905 g a.i/ha, the “LD50 (g a.i./ha)” value is recorded as 0.82 g a.i./ha and the “LD90 (g a.i./ha)” value is 7,910 g a.i./ha.
